The values that follow are results of earlier work, collected in patent US6409990B1, “Macromolecular carrier for drug and diagnostic agent delivery” (The Regents of the University of California, priority 1999, dated 2002).

The conditions of the data set: similar time postinjection; Grist TM et al.

For the molecule `O=C([O-])CN(CCN(CC(=O)[O-])C[C@H](COP(=O)([O-])OC1CCC(c2ccccc2)(c2ccccc2)CC1)N(CC(=O)[O-])CC(=O)[O-])CC(=O)[O-].[Gd+3].[H+].[H+].[H+]` [MS-325], the “typical CNR in the human aorta” value was 42.
